Measured values: patent US20230023070A1, “Therapy for the Treatment of Cancer” (Celegene Corporation, priority 2019, published 2023)
“Also recorded” adds a separate entry of the source.

Columns and labels:
MM1.S cells = experiment: Anti-proliferative activity by 3H-thymidine incorporation, combination with bortezomib; assay type: cell-based; details: 3 days, bortezomib 62.5 and 125.0 pM, pomalidomide 0.001-1.0 μM or Compound A-S 0.1-10.0 nM
Description: The anti-proliferative activity of pomalidomide (treatment of cells with 0.001-1.0 μM) combined with bortezomib (62.5 and 125.0 pM) or Compound A-S (treatment of cells with 0.1-10.0 nM) combined with bortezomib (62.5 and 125.0 pM) was measured by 3H-thymidine incorporation in MM1.S cells after 3 days of treatment in each condition. Combination indices (CI) were calculated using the Chou-Talalay Method for each combination. CI values below 1 indicated synergistic activity of combination.

KMS-12BM cells = experiment: Apoptosis by flow cytometry, Annexin-V and ToPro3 staining, after proteasome inhibitor pulse; assay type: cell-based; details: then 3 days treatment, AnnV+/ToPro3+; for apoptosis / cell killing in combination with bortezomib: 1 hour pulse with bortezomib; for apoptosis / cell killing in combination with carfilzomib: 1 hour pulse with carfilzomib
Description: Apoptosis was measured in KMS-12BM cells by flow cytometry using Annexin-V (AnnV+; x-axis) and ToPro3+ (y-axis) staining after either vehicle (DMSO), pomalidomide (POM) or Compound A-S treatment over 3 days following 1 hour pulse treatment with DMSO, Bortezomib (BORT) or Carfilzomib (CFZ) at indicated concentrations.

Structure (SMILES) | anti-proliferative activity in combination with bortezomib (combination index, Chou-Talalay; CI below 1 = synergistic) (MM1.S cells) | apoptosis / cell killing in combination with bortezomib (KMS-12BM cells) | apoptosis / cell killing in combination with carfilzomib (KMS-12BM cells)
O=C1CC[C@H](N2Cc3c(OCc4ccc(CN5CCOCC5)cc4)cccc3C2=O)C(=O)N1 [Compound A-S, (S)-3-(4-((4-(morpholinomethyl)benzyl)oxy)-1-oxoisoindolin-2-yl)piperidine-2,6-dione] | synergistic | induced cell killing; also recorded: apoptosis induced | induced cell killing; also recorded: apoptosis induced
Nc1cccc2c1C(=O)N(C1CCC(=O)NC1=O)C2=O (stereo not drawn) [pomalidomide, reference compound] | synergistic | induced cell killing | induced cell killing
